Results taken from paper PMC3951324, “Side Chain Hydrophobicity Modulates Therapeutic Activity and Membrane Selectivity of Antimicrobial Peptide Mastoparan-X” (PLoS ONE, 2014).
Ends that are not written are not given here.

Assay: Peptide partitioning by ITC
Type: physicochemical
Settings: 37°C
Protocol: Lipid stock solutions of POPC and POPG were prepared in chloroform∶methanol (9∶1). Mixtures of POPC∶POPG (3∶1) were prepared and the organic solvent was evaporated under a gentle stream of nitrogen. The lipid films were kept in vacuum (P<0.1 Pa) overnight in order to remove the residual solvent. Buffer containing 10 mM HEPES and 100 mM sodium chloride (pH 7.4) was added to the lipid films, and they were hydrated for 60 min followed by extrusion through 100 nm using an Avanti mini-extruder. Dynamic Light Scattering (DLS, Brookhaven Instrument Corporation, ZetaPALS) was used for measuring the liposome size distribution. The effective lipid concentration was determined by inductively coupled plasma atomic emission spectroscopy (ICP-AES Vista AX, Varian).
The partitioning of AMPs onto lipid membranes was investigated by isothermal titration calorimetry (ITC, iTC200, Microcal, 204 µL cell volume). For the peptide analogues MPX, Ala1 and Ala14, 10 mM […] (3∶1) LUVs were injected (19×2 µL) into a 20 µM peptide solution at T = 37°C. The speed of the stirrer was 1000 rpms, and all titration were initiated with a 0.5 µL pre-injection. The heat-traces were integrated using custom made software, and the heat of partitioning was analysed using a partitioning isotherm based on Gouy-Chapman-Stern description of the electrostatic interaction of the peptide and membrane, [32]. The effective charge of the peptide (zeff), the partitioning coefficient of insertion (Kins), the molar enthalpy of partitioning ( [drawing 4] ), and the heat of dilution (qdil) were extracted as fitting parameters. The effective partitioning coefficient was derived as [drawing 5] where F is Faradays constant, [drawing 6] is the electrostatic potential evaluated at the interface of a fully charged membrane (25mol% negative charge before insertion of the first peptide), and R is the ideal gas constant. The instrument was electrically calibrated, and blank titration of LUVs into buffer was performed to ensure that heat of dilution could be modelled as a constant in the data analysis. Each titration was conducted in triplicates.

With “INWKGIAAMAKKLL-NH2 [MPX, mastoparan X, reference compound]” the “effective charge (zeff) of the peptide” value (10 mM POPC∶POPG (3∶1) 100 nm LUVs injected (19×2 µL) into 20 µM peptide, pH 7.4, Gouy-Chapman-Stern fit, triplicates) was 2.5±0.1, the “partition coefficient of insertion Kins/10^5” value (10 mM POPC∶POPG (3∶1) LUVs into 20 µM peptide, pH 7.4, Gouy-Chapman-Stern fit, value is Kins divided by 10^5, triplicates) was 4.2±0.2 and the “molar enthalpy of partitioning” value (10 mM POPC∶POPG (3∶1) LUVs into 20 µM peptide, pH 7.4, triplicates) was -5.74 ± 0.072 kcal/mol. The “effective partition coefficient Keff/10^8” value (derived from Kins, zeff and the surface potential of fully charged membrane (25 mol% negative charge), value is Keff divided by 10^8) was 1.6±0.2.
